Assay results as given in the NIST ThermoML archive (doi:10.1016/j.jct.2017.05.001).

Test: wn = mass fraction of the nth substance listed
Conditions: Liquid; for viscosity: Falling or rolling sphere viscometry; for mass density: Vibrating tube method

OCCN(CCO)CCO [triethanolamine] + O
Conditions | mass density, w1 = 0.0992 [kg/m3] | mass density, w1 = 0.2 [kg/m3] | mass density, w1 = 0.2991 [kg/m3] | mass density, w1 = 0.4 [kg/m3] | viscosity, w1 = 0.0992 [mPa·s] | viscosity, w1 = 0.2 [mPa·s] | viscosity, w1 = 0.2991 [mPa·s] | viscosity, w1 = 0.4 [mPa·s]
373.15 K, 30000 kPa | 985.1 | 998.4 | 1012.5 | 1027.7 | 0.3632 | 0.4601 | 0.6109 | 0.8363
373.15 K, 40000 kPa | 989.4 | 1002.6 | 1016.8 | 1032 | 0.3659 | 0.4638 | 0.6193 | 0.8525
373.15 K, 50000 kPa | 993.4 | 1006.7 | 1020.7 | 1035.7 | – | – | – | –
373.15 K, 60000 kPa | 997.4 | 1010.6 | 1024.6 | 1039.7 | 0.3738 | 0.4753 | 0.6379 | 0.8789
373.15 K, 70000 kPa | 1001.4 | 1014.5 | 1028.4 | 1043.5 | – | – | – | –
373.15 K, 80000 kPa | 1005.3 | 1018.5 | 1032.4 | 1047.3 | 0.3807 | 0.4864 | 0.655 | 0.9114
373.15 K, 90000 kPa | 1009.1 | 1022.1 | 1036 | 1050.8 | – | – | – | –
373.15 K, 100000 kPa | 1012.7 | 1025.7 | 1039.5 | 1054.3 | 0.3871 | 0.4953 | 0.6721 | 0.9403
373.15 K, 110000 kPa | 1016.4 | 1029.4 | 1043.1 | 1057.9 | – | – | – | –
373.15 K, 120000 kPa | 1019.9 | 1032.9 | 1046.8 | 1061.3 | – | – | – | –
373.15 K, 130000 kPa | 1023.3 | 1036.2 | 1050.1 | 1064.6 | – | – | – | –
373.15 K, 140000 kPa | 1026.8 | 1039.7 | 1053.4 | 1067.8 | – | – | – | –
393.15 K, 100 kPa | 956.1 | 969.2 | 982.9 | 998.1 | – | – | – | –
393.15 K, 500 kPa | 956.4 | 969.5 | 983.3 | 998.5 | – | – | – | –
393.15 K, 1000 kPa | 956.6 | 969.7 | 983.5 | 998.6 | – | – | – | –
393.15 K, 2000 kPa | 957.1 | 970.2 | 984 | 999.1 | – | – | – | –
393.15 K, 5000 kPa | 958.6 | 971.7 | 985.5 | 1000.6 | 0.2913 | 0.3551 | 0.4515 | 0.5873
393.15 K, 10000 kPa | – | – | – | – | 0.2912 | 0.3579 | – | –
